PubChem BioAssay (NCI)
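Growth conditions: 96-well plates. Treatment: test compound, 48 hours, 5 concentrations. Analysis: linear interpolation between bracketing concentrations; unreached endpoints set to highest concentration. At the TGI there is no net growth.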

Columns and labels:
Assay in all cases: NCI-60 cell line screen, 48 h
IGROV1 ovarian = tested on: IGROV1 ovarian
DU-145 prostate = tested on: DU-145 prostate
SF-295 CNS = tested on: SF-295 CNS
MCF7 breast = tested on: MCF7 breast
HOP-62 NSCLC = tested on: HOP-62 NSCLC
UO-31 renal = tested on: UO-31 renal
HS 578T breast = tested on: HS 578T breast
K-562 leukemia = tested on: K-562 leukemia
RPMI-8226 leukemia = tested on: RPMI-8226 leukemia
OVCAR-3 ovarian = tested on: OVCAR-3 ovarian
HL-60(TB) leukemia = tested on: HL-60(TB) leukemia
SW-620 colon = tested on: SW-620 colon
RXF 393 renal = tested on: RXF 393 renal
SF-268 CNS = tested on: SF-268 CNS
NCI-H226 lung = tested on: NCI-H226 lung
OVCAR-8 ovarian = tested on: OVCAR-8 ovarian
COLO 205 colon = tested on: COLO 205 colon
SK-OV-3 ovarian = tested on: SK-OV-3 ovarian
ACHN renal = tested on: ACHN renal
SNB-75 CNS = tested on: SNB-75 CNS
M14 melanoma = tested on: M14 melanoma
MDA-MB-435 = tested on: MDA-MB-435
HT29 colon = tested on: HT29 colon
SNB-19 CNS = tested on: SNB-19 CNS
HCT-116 colon = tested on: HCT-116 colon
T-47D breast = tested on: T-47D breast
CCRF-CEM leukemia = tested on: CCRF-CEM leukemia
SK-MEL-5 melanoma = tested on: SK-MEL-5 melanoma
HOP-92 NSCLC = tested on: HOP-92 NSCLC
786-0 renal = tested on: 786-0 renal
NCI-H23 lung = tested on: NCI-H23 lung
NCI/ADR-RES ovarian = tested on: NCI/ADR-RES ovarian
KM12 colon = tested on: KM12 colon
PC-3 prostate = tested on: PC-3 prostate
TK-10 renal = tested on: TK-10 renal
OVCAR-4 ovarian = tested on: OVCAR-4 ovarian
UACC-257 melanoma = tested on: UACC-257 melanoma
HCC-2998 colon = tested on: HCC-2998 colon
SK-MEL-2 melanoma = tested on: SK-MEL-2 melanoma
OVCAR-5 ovarian = tested on: OVCAR-5 ovarian
UACC-62 melanoma = tested on: UACC-62 melanoma
SF-539 CNS = tested on: SF-539 CNS
BT-549 breast = tested on: BT-549 breast
HCT-15 colon = tested on: HCT-15 colon
A498 renal = tested on: A498 renal
SN12C renal = tested on: SN12C renal
SK-MEL-28 melanoma = tested on: SK-MEL-28 melanoma
SR leukemia = tested on: SR leukemia
CAKI-1 renal = tested on: CAKI-1 renal
U251 CNS = tested on: U251 CNS
MOLT-4 leukemia = tested on: MOLT-4 leukemia
NCI-H460 lung = tested on: NCI-H460 lung
EKVX NSCLC = tested on: EKVX NSCLC
LOX IMVI melanoma = tested on: LOX IMVI melanoma
MDA-MB-231 breast = tested on: MDA-MB-231 breast
A549 NSCLC = tested on: A549 NSCLC

## CC(=O)O[C@H]1CC2C(C3CCC(C(C)CCC(N)=O)[C@]31C)[C@H](OC(C)=O)C[C@@H]1CC3(CC[C@]21C)OOC1(CC[C@]2(C)C4C[C@H](OC(C)=O)[C@]5(C)C(C(C)CCC(N)=O)CCC5C4[C@H](OC(C)=O)C[C@@H]2C1)OO3 (stereo partly specified)
IGROV1 ovarian
  TGI: 3.28 µM
DU-145 prostate
  TGI: 3.49 µM
SF-295 CNS
  TGI: 3.2 µM
MCF7 breast
  TGI: 4.08 µM
HOP-62 NSCLC
  TGI: 3.86 µM
UO-31 renal
  TGI: 2.36 µM
HS 578T breast
  TGI: 4.55 µM
K-562 leukemia
  TGI: > 100 µM
RPMI-8226 leukemia
  TGI: > 100 µM
OVCAR-3 ovarian
  TGI: 2.85 µM
HL-60(TB) leukemia
  TGI: 4.19 µM
SW-620 colon
  TGI: > 100 µM
RXF 393 renal
  TGI: 3.34 µM
SF-268 CNS
  TGI: 3.37 µM
NCI-H226 lung
  TGI: 2.79 µM
OVCAR-8 ovarian
  TGI: 3.66 µM
COLO 205 colon
  TGI: 2.84 µM
SK-OV-3 ovarian
  TGI: 3.95 µM

## CC1=CCC[C@H]2[C@](C)(CC3=CC(=O)C(SCC(C)C)=CC3=O)[C@@H](C)CC[C@]12C
ACHN renal
  TGI: 29.7 µM
SNB-75 CNS
  TGI: 23.8 µM
M14 melanoma
  TGI: 34.7 µM
IGROV1 ovarian
  TGI: 22.9 µM
MDA-MB-435
  TGI: 32.5 µM
HT29 colon
  TGI: 29.9 µM
DU-145 prostate
  TGI: 30.9 µM
SNB-19 CNS
  TGI: 34.6 µM
SF-295 CNS
  TGI: 34.6 µM
HCT-116 colon
  TGI: 24.8 µM
T-47D breast
  TGI: 12.9 µM
CCRF-CEM leukemia
  TGI: 3.72 µM
MCF7 breast
  TGI: 37.7 µM
HOP-62 NSCLC
  TGI: 31 µM
SK-MEL-5 melanoma
  TGI: 31.5 µM
UO-31 renal
  TGI: 25.5 µM
HOP-92 NSCLC
  TGI: 17.9 µM
K-562 leukemia
  TGI: 30.8 µM
786-0 renal
  TGI: 27.2 µM
NCI-H23 lung
  TGI: 25.5 µM
NCI/ADR-RES ovarian
  TGI: 38.8 µM
KM12 colon
  TGI: 28 µM
RPMI-8226 leukemia
  TGI: 14.3 µM
OVCAR-3 ovarian
  TGI: 42.1 µM
PC-3 prostate
  TGI: 30.9 µM
SW-620 colon
  TGI: 51.7 µM
TK-10 renal
  TGI: 31.3 µM
OVCAR-4 ovarian
  TGI: 31.8 µM
UACC-257 melanoma
  TGI: 37.8 µM
HCC-2998 colon
  TGI: 31.5 µM
RXF 393 renal
  TGI: 26.1 µM
SK-MEL-2 melanoma
  TGI: 31 µM
OVCAR-5 ovarian
  TGI: 40.9 µM
UACC-62 melanoma
  TGI: 28.8 µM
SF-539 CNS
  TGI: 33.2 µM
BT-549 breast
  TGI: 35.8 µM
NCI-H226 lung
  TGI: 28.9 µM
HCT-15 colon
  TGI: 31.8 µM
OVCAR-8 ovarian
  TGI: 26.1 µM
A498 renal
  TGI: 33.2 µM
SN12C renal
  TGI: > 57.5 µM
SK-MEL-28 melanoma
  TGI: 32.5 µM
SR leukemia
  TGI: 59 µM
CAKI-1 renal
  TGI: 16.7 µM
U251 CNS
  TGI: 42.3 µM
COLO 205 colon
  TGI: 36.6 µM
MOLT-4 leukemia
  TGI: 6.19 µM
NCI-H460 lung
  TGI: 31.5 µM
EKVX NSCLC
  TGI: 31 µM
LOX IMVI melanoma
  TGI: 24.6 µM
MDA-MB-231 breast
  TGI: > 64 µM
SK-OV-3 ovarian
  TGI: 35.1 µM
A549 NSCLC
  TGI: 29.9 µM
